This note sets out measurements from US9670242B2, “Tetracyclic anthraquinone derivatives” (Tianjin Hemay Bio-Tech Co., Ltd, priority 2012, dated 2017).

Holding throughout (assay type): cell-based, human
Assay [1] has as its system SK-OV-3 cells. The experiment in a line: SK-OV-3 cell growth inhibition test (MTT assay). The settings on record: growth inhibition at 667 nM, 69 h. Summed up: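 Human ovarian SK-OV-3 cells, 4000 per well in McCoy's 5A with 10% FBS, rested overnight, then grown 69 h with compound at 37 °C, 5% CO2. MTT (0.5 mg/mL, 3 h), DMSO solubilisation, OD at 490 nm; inhibition ratio computed against untreated and blank wells.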
In general terms: Tetrazolium assays rely on reduction of a dye to a coloured formazan, in cell work by metabolically active cells.

Assay [2] relates to BxPc-3 cells. The experiment in a line: BxPc-3 cell growth inhibition test (MTT assay). Particulars: growth inhibition at 2000 nM, 70 h. A digest of the protocol: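 BxPC-3 human pancreatic cancer cells at 5000 per well in RPMI-1640 with 10% FBS were treated with compound from day 2 for 70 h at 37 °C, 5% CO2. Viability was measured by MTT (0.5 mg/mL, 3 h) with DMSO solubilisation and OD 490 nm. Inhibition ratio = (PC−n)/(PC−NC)×100%.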

The subject of assay [3] is NCI-H446 cells. Put plainly: NCI-H446 cell growth inhibition test (MTT assay). The settings on record: growth inhibition at 222 nM, 70 h. A digest of the protocol:
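Human small cell lung cancer cells in RPMI-1640 with 10% FBS were seeded at 4000 per well and treated with compound for 70 h at 37° C, 5% CO2. MTT at 0.5 mg/mL was added for 3 h, formazan was dissolved in DMSO and OD read at 490 nm. Inhibition ratio was calculated against untreated and blank wells.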

In assay [4] the test system is 786-O cells. Put plainly: 786-O cell growth inhibition test (MTT assay). The settings on record: 72 h. The method, then: 786-O Cell Growth Inhibition Test (MTT Assay)
(§1) II. Reagents and Consumable Materials
Culture medium: 90% RPMI1640+10% FBS (fetal calf serum); Pancreatin (0.25% (w/v) solution was formulated with PBS, 0.53 mM of EDTA was added in the formulation); PBS; 96-well culture plate.
(§2) 1. A plate (10 cm) of cells in logarithmic growth phase that were normally cultured was collected;
(§3) 2. The culture solution was sucked out. The plate was washed with 5 mL of PBS once or twice;
(§4) 3. PBS was sucked out. 1.5 mL of 0.25% pancreatin was added to the plate to infiltrate the cells for 1 min;
4. The culture plate was placed in an incubator. Digestion was carried out for about 1 min at 37° C.;
5. 3 mL of complete culture solution was added to the culture plate to stop the digestion. The cells were carefully scoured with micropipette (1 mL) to give a uniform cell suspension. The suspension was implanted into a 96-well cell culture disc by 2000 cells/100 μL per well. The culture plate was incubated overnight under 5% CO2 at 37° C. In day 2, 100 μL of culture solution comprising a compound was added in each well. The plate was further incubated for 72 h under 5% CO2 at 37° C.;
(§5) 6. The culture solution was sucked out;
(§6) 7. 100 μL of serum-free culture solution containing 0.5 mg/mL MTT was added in each well. The plate was incubated for 3 h;
(§7) 8. The culture solution was carefully sucked out;
(§8) 9. 100 μL of DMSO was added in each well and vibrated to dissolve;
(§9) 10. OD values were determined at 490 nM.
(§10) IV. Results and Treatments
(§11) 1. Calculation of Relative Inhibition Ratio The inhibition ratio of a compound on cell growth=(PC−n)/(PC−NC)×100%
(§12) PC: OD values of cells after normal growth in control wells without a compound;
(§13) n: OD values of cells after growth in test wells with a compound;
(§14) NC: Background OD values of blank wells without a compound and cells.

Assay [5] has as its system A375 cells. Put plainly: A375 cell growth inhibition test (MTT assay). The settings on record: 72 h. How it is done: A375 Cell Growth Inhibition Test (MTT Assay)
as §1
Culture medium: 90% DMEM+10% FBS (fetal calf serum); Pancreatin (0.25% (w/v) solution was formulated with PBS, 0.53 mM of EDTA was added in the formulation); PBS; 96-well culture plate.
as §2, §3, §4
(§15) 4. The culture plate was placed in an incubator. Digestion was carried out for about 5 min at 37° C.;
5. 3 mL of complete culture solution was added to the culture plate to stop the digestion. The cells were carefully scoured with micropipette (1 ml) to give a uniform cell suspension. The suspension was implanted into a 96-well cell culture disc by 3000 cells/100 μL per well. The culture plate was incubated overnight under 5% CO2 at 37° C. In day 2, 100 μL of culture solution comprising a compound was added in each well. The plate was further incubated for 72 h under 5% CO2 at 37° C.;
as §5, §6, §7, §8, §9, §10, §11, §12, §13, §14

Assay [6] deals with A431 cells. Put plainly: A431 cell growth inhibition test (MTT assay). Particulars: 72 h. How it is done:
A431 Cell Growth Inhibition Test (MTT Assay)
as §1
Culture medium: 45% DMEM+45% F12+10% FBS (fetal calf serum); Pancreatin (0.25% (w/v) solution was formulated with PBS, 0.53 mM of EDTA was added in the formulation); PBS; 96-well culture plate.
as §2, §3, §4, §15
5. 3 mL of complete culture solution was added to the culture plate to stop the digestion. The cells were carefully scoured with micropipette (1 mL) to give a uniform cell suspension. The suspension was implanted into a 96-well cell culture disc by 2500 cells/100 μL per well. The culture plate was incubated overnight under 5% CO2 at 37° C. In day 2, 100 μL of culture solution comprising a compound was added in each well. The plate was further incubated for 72 h under 5% CO2 at 37° C.;
as §5, §6, §7, §8, §9, §10, §11, §12, §13, §14

SMILES strings stand for the structures.

For orientation: IC50 means the concentration that gives 50% inhibition. In the case of `COc1cccc2c1C(=O)c1c(O)c3c(c(O)c1C2=O)CC(O)(C(=O)COC(=O)CCC(=O)NCCOCCO)CC3OC1CC(n2cccc2)C(O)C(C)O1` (stereo not drawn) [Example 62], the “Inhibition Ratio (%)” value was found to be 63.6% in assay [1], 82.5% in assay [2] and 64.6% in assay [3]. In addition, the midpoint of inhibition in assay [4], the IC50, lay at 110 nM.
As for `COc1cccc2c1C(=O)c1c(O)c3c(c(O)c1C2=O)CC(O)(C(=O)COC(=O)CCC(=O)O)CC3OC1CC(n2cccc2)C(O)C(C)O1` (stereo not drawn) [Compound A, 3′-pyrrolyldoxorubicin-14-oxo-succinic acid monoester, reference compound], the half-inhibitory concentration (IC50) in assay [5] worked out at 207 nM; in assay [6], 68 nM; in assay [4], 180 nM.
With `CC(=O)O.COc1cccc2c1C(=O)c1c(O)c3c(c(O)c1C2=O)CC(O)(C(=O)COC(=O)CCC(=O)NCCCN1CCN(C)CC1)CC3O[C@H]1C[C@H](n2cccc2)[C@H](O)[C@H](C)O1` (stereo partly drawn) [Example 81, 10-((3′-(pyrrol-1-yll)-2′,3′,6′-trideoxy-alphal-l-lyxo-hexylpyranyl)oxy)-7,8,9,10-tetrahydro-6,8,11-trihydroxy-13-oxo-14-(4-((3-(4-methylpiperazin-1-yl)propyl)amino)-4-oxo-butyrato)-1-methoxy-5,12-naphthalenedione acetate], the “Inhibition Ratio (%)” value came to 56.4% in assay [1], 80.7% in assay [2] and 56.8% in assay [3]. In addition, the IC50 was 67 nM in assay [5] and 42 nM in assay [6].
